What is called EC50 is the concentration at which the effect is half-maximal.

For the assay, the target named is T1, human TGR5 (h-TGR5) (Homo sapiens, UniProt Q8TDU6).
T1 construct: expressed in transfected cells
T1 sequence (Q8TDU6 1-330): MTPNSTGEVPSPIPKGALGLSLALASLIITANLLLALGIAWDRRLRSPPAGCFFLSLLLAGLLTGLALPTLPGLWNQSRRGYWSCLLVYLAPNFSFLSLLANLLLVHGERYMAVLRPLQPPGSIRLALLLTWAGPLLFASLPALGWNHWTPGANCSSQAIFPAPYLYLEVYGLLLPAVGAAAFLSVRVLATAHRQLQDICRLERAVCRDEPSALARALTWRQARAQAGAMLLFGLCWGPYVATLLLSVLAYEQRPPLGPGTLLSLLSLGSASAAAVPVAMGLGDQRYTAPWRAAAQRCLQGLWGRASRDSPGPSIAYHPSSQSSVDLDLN
As to the kind of experiment: TGR5/CRE-Luciferiase Assay (HEK 293 hTGR5/CRE-Luc cells). Type of assay: cell-based. Summed up:
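HEK293 cells stably carrying hTGR5 and a CRE-luciferase reporter were exposed to serially diluted compounds (diluted in DMEM with 5% DMSO) for 6 h. Cells were then lysed in luciferase buffer, luminescence was read, and EC50 values were derived from dose-response curves.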

[1] abbreviates: h-TGR5 CRE-Luc EC50, Table 1, read-out: CRE-Luc (EC50).
[2] abbreviates: HEK 293 hTGR5/CRE-Luc cells, 6 hours incubation, luciferase activity, Table 2, read-out: h-TGR5CRE-Luc EC50 (CRE-Luc).

Structures can show the parent of a compound that is named as a salt. Where two headings read alike, the source gives them in different places. A value given as a limit tells only on which side of the number the result lay.

`COc1ccc(C(C)(C)c2cnc(CNCc3c(F)cccc3Cl)n2-c2ccc(F)cc2)cc1OC` [1-[5-{1-[3,4-bis(methyloxy)phenyl]-1-methylethyl}-1-(4-fluorophenyl)-1H-imidazol-2-yl]-N-[(2-chloro-6-fluorophenyl)methyl]methanamine]: the EC50 under setting [1] was less than 100 nM. On the same count and under the same terms, to `CC(C)(c1ccc(Cl)c(Cl)c1)c1cnc(OCC2CCN(c3nnn[nH]3)CC2)n1-c1ccc(F)cc1` [4-[({5-[1-(3,4-dichlorophenyl)-1-methylethyl]-1-(4-fluorophenyl)-1H-imidazol-2-yl}oxy)methyl]-1-(1H-tetrazol-5-yl)piperidine] belongs 1000 to 10000 nM. Still for that read-out and setting: as for `CC(C)(c1ccc(Cl)c(Cl)c1)c1cnc(SCc2c(F)cccc2Cl)n1CCO` [2-(2-{[(2-chloro-6-fluorophenyl)methyl]thio}-5-[1-(3,4-dichlorophenyl)-1-methylethyl]-1H-imidazol-1-yl)ethanol], the figure is 100 to 1000 nM. As for `COc1ccc(Cc2nnc(SCc3ccc(F)cc3Cl)n2-c2ccc(F)cc2)cc1` [Example 28, hydrochloride], the EC50 under setting [2] was in the range of 1000 to 10000 nM.

Turning to `CC(C)(c1ccc(Cl)c(Cl)c1)c1cnc(C(O)CCc2ccc(Cl)cc2Cl)n1-c1ccc(F)cc1` (centres unmarked) [3-(2,4-dichlorophenyl)-1-{5-[1-(3,4-dichlorophenyl)-1-methylethyl]-1-(4-fluorophenyl)-1H-imidazol-2-yl}propan-1-ol], the EC50 under setting [1] lay within 1000 to 10000 nM. As to `CC(C)(c1ccc(Cl)c(Cl)c1)c1cnc(SCC2CCN(S(C)(=O)=O)CC2)n1-c1ccc(F)c(F)c1` [4-[({5-[1-(3,4-dichlorophenyl)-1-methylethyl]-1-(3,4-difluorophenyl)-1H-imidazol-2-yl}thio)methyl]-1-(methylsulfonyl)piperidine], the EC50 under setting [1] is less than 100 nM. Still for that read-out and setting: as for `CC(C)(c1ccc(Cl)c(Cl)c1)c1cnc(SCc2c(F)cccc2Cl)n1-c1ccc(Cl)c(F)c1` [1-(4-chloro-3-fluorophenyl)-2-{[(2-chloro-6-fluorophenyl)methyl]thio}-5-[1-(3,4-dichlorophenyl)-1-methylethyl]-1H-imidazole], the figure is 100 to 1000 nM; as for `COc1ccc(C(C)(C)c2cnc(C(=O)N3CCOCC3)n2-c2ccc(F)cc2)cc1OC` [4-{[5-{1-[3,4-bis(methyloxy)phenyl]-1-methylethyl}-1-(4-fluorophenyl)-1H-imidazol-2-yl]carbonyl}morpholine], 1000 to 10000 nM.

`Fc1ccc(-n2c(Cc3ccc(F)c(Cl)c3)nnc2SCc2c(F)cccc2Cl)cc1` [Example 15]: under setting [2], the EC50 was 1000 to 10000 nM. `CC(C)(c1ccc(Cl)c(Cl)c1)c1cnc(SCc2ccc(Cl)c(-c3nnn[nH]3)c2)n1-c1cccc(F)c1` [5-{2-chloro-5-[({5-[1-(3,4-dichlorophenyl)-1-methylethyl]-1-(3-fluorophenyl)-1H-imidazol-2-yl}thio)methyl]phenyl}-1H-tetrazole]: the EC50 under setting [1] lay within 100 to 1000 nM.

As for `COc1cc(C(C)(C)c2cnc(SCc3ccc(S(=O)(=O)NC(=O)NCCC(=O)O)cc3Cl)n2-c2ccc(F)cc2)ccc1Cl` [N-[({[3-chloro-4-({[5-{1-[4-chloro-3-(methyloxy)phenyl]-1-methylethyl}-1-(4-fluorophenyl)-1H-imidazol-2-yl]thio}methyl)phenyl]sulfonyl}amino)carbonyl]-beta-alanine], the EC50 under setting [1] lay in the range of 100 to 1000 nM.

With `CCN(CC)CCOc1ccc(CSc2ncc(C(C)(C)c3ccc(Cl)c(Cl)c3)n2-c2ccc(F)cc2)cc1-c1nnn[nH]1` [2-({4-[({5-[1-(3,4-dichlorophenyl)-1-methylethyl]-1-(4-fluorophenyl)-1H-imidazol-2-yl}thio)methyl]-2-(1H-tetrazol-5-yl)phenyl}oxy)-N,N-diethylethanamine], the EC50 under setting [1] was 100 to 1000 nM. In the case of `CN1CCN(c2ccc(CSc3ncc(C(C)(C)c4ccc(Cl)c(Cl)c4)n3-c3ccc(F)cc3)cc2F)CC1` [1-{4-[({5-[1-(3,4-dichlorophenyl)-1-methylethyl]-1-(4-fluorophenyl)-1H-imidazol-2-yl}thio)methyl]-2-fluorophenyl}-4-methylpiperazine], the EC50 under setting [1] was in the range of 100 to 1000 nM. The same measure, in the same setting: as for `CC(C)(c1ccc(Cl)c(Cl)c1)c1cnc(S(=O)(=O)N[C@H](CO)c2ccccc2)n1-c1ccc(F)cc1` [5-[1-(3,4-dichlorophenyl)-1-methylethyl]-1-(4-fluorophenyl)-N-[(1S)-2-hydroxy-1-phenylethyl]-1H-imidazole-2-sulfonamide], the figure is 1000 to 10000 nM; as for `CC(C)(c1ccc(Cl)c(Cl)c1)c1cnc(SCc2ccc(Cl)c(C(N)=O)c2)n1-c1ccc(F)cc1` [2-chloro-5-[({5-[1-(3,4-dichlorophenyl)-1-methylethyl]-1-(4-fluorophenyl)-1H-imidazol-2-yl}thio)methyl]benzamide], less than 100 nM; as for `CC(C)(C)OC(=O)N1CCC(CSc2ncc(C(C)(C)c3ccc(F)c(F)c3)n2-c2ccc(F)cc2)CC1` [1,1-dimethylethyl 4-[({5-[1-(3,4-difluorophenyl)-1-methylethyl]-1-(4-fluorophenyl)-1H-imidazol-2-yl}thio)methyl]piperidine-1-carboxylate], 100 to 1000 nM. The same measure, in the same setting: to `CC(C)(c1ccc(Cl)c(Cl)c1)c1c(Cl)nc(SCc2c(F)cccc2Cl)n1-c1ccc(F)cc1` [4-chloro-2-{[(2-chloro-6-fluorophenyl)methyl]thio}-5-[1-(3,4-dichlorophenyl)-1-methylethyl]-1-(4-fluorophenyl)-1H-imidazole] belongs 100 to 1000 nM; to `CC(C)(c1ccc(Cl)c(Cl)c1)c1cnc(SCc2ccc(F)c(NC(=N)N)c2)n1-c1ccc(F)cc1` [1-{5-[({5-[1-(3,4-dichlorophenyl)-1-methylethyl]-1-(4-fluorophenyl)-1H-imidazol-2-yl}thio)methyl]-2-fluorophenyl}guanidine], 100 to 1000 nM. Still for that read-out and setting: as for `CC(C)(c1ccc(Cl)c(O)c1)c1cnc(SCc2c(F)cc(C(=O)O)cc2F)n1-c1ccc(F)cc1` [4-[({5-[1-(4-chloro-3-hydroxyphenyl)-1-methylethyl]-1-(4-fluorophenyl)-1H-imidazol-2-yl}thio)methyl]-3,5-difluorobenzoic acid], the figure is 100 to 1000 nM; as for `CC(C)(c1ccc(Cl)c(Cl)c1)c1cnc(S(=O)(=O)Cc2ccc(Cl)c(Cl)c2)n1-c1ccc(F)cc1` [5-[1-(3,4-dichlorophenyl)-1-methylethyl]-2-{[(3,4-dichlorophenyl)methyl]sulfonyl}-1-(4-fluorophenyl)-1H-imidazole], 1000 to 10000 nM.

With `CC(C)(c1ccc(Cl)c(Cl)c1)c1cnc(SCc2c(F)cccc2Cl)n1C1CCCC1` [2-{[(2-chloro-6-fluorophenyl)methyl]thio}-1-cyclopentyl-5-[1-(3,4-dichlorophenyl)-1-methylethyl]-1H-imidazole], under setting [1], the EC50 was in the range of 1000 to 10000 nM. `CC(C)(c1ccc(Cl)c(Cl)c1)c1cnc(S(=O)(=O)Cc2c(F)cccc2Cl)n1-c1ccc(F)cc1F` [2-{[(2-chloro-6-fluorophenyl)methyl]sulfonyl}-5-[1-(3,4-dichlorophenyl)-1-methylethyl]-1-(2,4-difluorophenyl)-1H-imidazole]: the EC50 under setting [1] is 100 to 1000 nM. The same measure, in the same setting: as for `CC(C)(c1ccc(Cl)c(S(N)(=O)=O)c1)c1cnc(SCc2ccc(Cl)c(-c3nnn[nH]3)c2)n1-c1ccc(F)cc1` [2-chloro-5-{1-[2-({[4-chloro-3-(1H-tetrazol-5-yl)phenyl]methyl}thio)-1-(4-fluorophenyl)-1H-imidazol-5-yl]-1-methylethyl}benzenesulfonamide], the figure is 100 to 1000 nM; as for `CC(C)(c1ccc(Cl)c(Cl)c1)c1cnc(SCc2c(F)cccc2CO)n1-c1ccc(F)cc1` [{2-[({5-[1-(3,4-dichlorophenyl)-1-methylethyl]-1-(4-fluorophenyl)-1H-imidazol-2-yl}thio)methyl]-3-fluorophenyl}methanol], 100 to 1000 nM; as for `CC(C)(c1ccc(Cl)c(Cl)c1)c1cnc(SCc2c(F)cccc2Cl)n1-c1ccc(F)cc1Cl` [1-(2-chloro-4-fluorophenyl)-2-{[(2-chloro-6-fluorophenyl)methyl]thio}-5-[1-(3,4-dichlorophenyl)-1-methylethyl]-1H-imidazole], 100 to 1000 nM. Turning to `CC(C)(c1ccc(Cl)c(Cl)c1)c1cnc(COc2ccc(-c3nn[nH]n3)cc2Cl)n1-c1ccc(F)cc1` [5-{3-chloro-4-[({5-[1-(3,4-dichlorophenyl)-1-methylethyl]-1-(4-fluorophenyl)-1H-imidazol-2-yl}methyl)oxy]phenyl}-2H-tetrazole], the EC50 under setting [1] is 1000 to 10000 nM. With `COc1ccc(C(C)(C)c2cnc(CNc3ccc(F)c(Cl)c3)n2-c2ccc(F)cc2)cc1OC` [N-{[5-{1-[3,4-bis(methyloxy)phenyl]-1-methylethyl}-1-(4-fluorophenyl)-1H-imidazol-2-yl]methyl}-3-chloro-4-fluoroaniline], the EC50 under setting [1] is 100 to 1000 nM. On the same count and under the same terms, as for `CC(C)(c1ccc(Cl)c(Cl)c1)c1cnc(SCc2ccc(F)cc2CO)n1-c1ccc(F)cc1` [{2-[({5-[1-(3,4-dichlorophenyl)-1-methylethyl]-1-(4-fluorophenyl)-1H-imidazol-2-yl}thio)methyl]-5-fluorophenyl}methanol], the figure is 1000 to 10000 nM; as for `CC(C)(O)c1ccc(CSc2ncc(C(C)(C)c3ccc(Cl)c(Cl)c3)n2-c2ccc(F)cc2)c(F)c1` [2-{4-[({5-[1-(3,4-dichlorophenyl)-1-methylethyl]-1-(4-fluorophenyl)-1H-imidazol-2-yl}thio)methyl]-3-fluorophenyl}propan-2-ol], 100 to 1000 nM.

Values taken from patent US8785488B2 (Exelixis Patent Company LLC, priority 2009, dated 2014).
